US20240024479A1, “NK CELLS OR T CELLS EXPRESSING CHIMERIC HEMATOPOIETIC GROWTH FACTOR RECEPTORS AND METHODS OF USE” (The United States of America, as represented by the …, priority 2020, published 2024)

Experiments:
parental NK-92 cell line = test: In vitro cell expansion of parental NK-92; format: cell-based, human; details: EPO or TPO administration
Procedure: In vitro cell expansion cultures: The NK-92 (5×10^4 cell/ml) and KHYG-1 (1×10^4 cell/ml) cells were cultured in 1 ml of complete medium in 24-well plate. […] Trypan blue negative cells were counted every other day. […] The short-term cell expansion assay was performed in similar fashion, except cells were initially cultured without IL-2 overnight before adding different cytokines and enumerating the cell number. For competitive primary NK and T cell expansion assay, all transduced cells (5×10^5/ml for NK and 4×10^5/ml for T cell) containing a mixture of GFP positive (transduced) and GFP negative (untransduced) cells were plated on day 0. Fresh medium with appropriate supplements was replaced every other day for NK cells and only on day 3 for T cell experiment. Viable cells were counted and percentage of GFP^+ cells was acquired on indicated days (NK: day 4 and 6, T: day 3 and 6). The fold change of GFP^+ cells was calculated by multiplying the counted cell number times the fraction GFP^+.

c-MPL+ NK-92 cells = test: Flow cytometry of cell signaling and anti-apoptotic proteins, c-MPL+ NK-92; format: cell-based, human
Procedure: Staining was performed in phosphate-buffered saline (PBS) with 2% FBS and 2 mM EDTA and analyzed on a BD LSRFortessa machine. If intracellular staining was required, BD cytofix/cytoperm (BD Biosciences) was applied for cell fixation and permeabilization after surface staining. The apoptosis assay was performed using PE annexinV apoptosis detection kit (BD Biosciences). The data were analyzed on FlowJo software.
Expression of target proteins was evaluated afterward by flow cytometry as described above.

GFP+ MPL+ NK cells = test: Degranulation assay and cytokine production, c-MPL-transduced primary NK cells with K562; format: cell-based, human
Procedure: To examine degranulation, cells were washed after two hours and stained with anti-CD107a (H4A3) (BioLegend). To assay cytokine production, GolgiPlug and GolgiStop (BD Biosciences) were added at manufacturer's recommended concentrations within the first hour of co-culture with K562. After 4 hours, cells were washed and stained for cell surface markers, then stained intracellularly with mAb recognizing TNF-α (Mab 11) and IFN-γ (B27) (BD Biosciences).

[1] = test system: GFP+ MPL+ transduced cells; test: Cell surface phenotype of c-MPL-transduced primary NK cells; format: cell-based, human
Procedure: Human NK cells were stimulated and transduced with c-MPL/GFP lentiviral vectors. […] After 4 days, cellular function was assessed by mixing at a 1:1 ratio with K562 target cells and assessing (FIG. 13A) NK cell degranulation (by surface anti-CD107a staining) two hours later, or (FIG. 13B) intracellular IFN-γ and TNF-α four hours after addition of K562. Results for gated GFP transduced cells or independent untransduced cultures from the same donors are shown. The cell surface phenotype of the NK cells was also assessed after 4 days of culture with cytokines as indicated (FIG. 13C).
Flow cytometry, reagents and pathway analysis: Fluorochrome-conjugated monoclonal antibodies were used as follows: BD Biosciences: CD56-PE-Cy7 (NCAM16.2), CD3-PE (UCHT1), c-MPL-PE (1.6.1), STAT5(pY694)-Alexa Fluor647 (47/stat5(pY694)), NKp46-APC (9E2), NKp44-PE (p44-8), FAS-PE (DX2) CD62L-V450 (DREG-56); R&D systems: EPOR-PE (FAB307P); Biolegend: Bc1-2-PE (100), TRAIL-APC (RIK-2), CXCR4-BV421 (12G5), KIR3DL1-BV421 (DX9); Abcam: Bcl-xL-PE (ab208747); Cell signaling technology: P-p44/42 MAPK-Alexa Fluor647 (E10) and p-S6 ribosomal protein-PE (D57.2.2E); Beckman Coulter: NKG2A-PE (Z199), KIR2DL1/S1-PE (EB6B), KIR2DL2/3-PE/Cy5.5 (GL183). Staining was performed in phosphate-buffered saline (PBS) with 2% FBS and 2 mM EDTA and analyzed on a BD LSRFortessa machine. […] The data were analyzed on FlowJo software.

GFP+ MPL+ cells = test: Persistence of transduced human NK cells in immunodeficient mice; format: in vivo, NSG mice; details: for average percentage of GFP+ MPL+ cells amongst the recovered human cells: TPO 50 μg/kg daily, 4 days, about 10% of injected cells
From the text: Both populations were then mixed at a 1:1 ratio immediately before injection intravenously into NSG mice (such that GFP^+ MPL^+ cells and GFP^+ CD34^+ cells each constituted ˜10% of the mixed cells). Each mouse received 2.2×10^7 total human NK cells. […] MPL-transduced NK cells were identified as GFP^+ MPL^+ while CD34-transduced NK cells were gated as GFP^+ CD34^+. The frequency of transduced cells is presented (FIG. 14A) as a percentage of MHC-I^+ human cells isolated from organs or (FIG. 14B) as percent of total live mononuclear cells recovered from each organ. The legend applies to both FIGS. 14A and 14B. Data from 9 mice per group are shown with NK cells derived from 3 human blood donors. Data was normalized to account for unequal transduction or subset mixing before injection using the equation: […]
Persistence of transduced human NK cells in immunodeficient mice: NK cells from human PBMC were transduced with matched lentiviral vectors encoding GFP/MPL or GFP/CD34 then mixed at a 1:1 ratio and injected intravenously into NSG mice (2.2×10^7 total cells/mouse). […] After euthanasia, blood was drawn by cardiac puncture, bone marrow was harvested by flushing the tibia, and spleen, liver, and lung fragments were processed by grinding over 70 μm nylon mesh. Blood, bone marrow, lung, and spleen samples received 1-2 rounds of 5 minute incubations with ACK lysis buffer (Quality biological). Liver samples were purified by centrifugation over 35% Percoll (Sigma) solution in RPMI. The presence of transduced human cells was quantified in various organs via flow cytometry using antibodies to human MHC class I (W6/32) (BioLegend), c-MPL (1.6.1), CD34 (581) (BD BioSciences), GFP-fluorescence, and Live/Dead Aqua viability dye (Thermo Fisher).

TPO: recombinant human thrombopoietin, ligand of the c-MPL receptor; 50 ng/ml rhTPO (R&D)
expansion of the parental NK-92 cell line (parental NK-92 cell line): did not alter
pS6 expression (c-MPL+ NK-92 cells; TPO added to LD IL-2): 11.84
STAT5 phosphorylation, additivity (c-MPL+ NK-92 cells; TPO combined with LD IL-2): No additive effects
pSTAT5 expression (c-MPL+ NK-92 cells; TPO vs no IL-2 control, comparable to LD IL-2): appeared to increase pSTAT5 expression
Bcl-2 RMFI (c-MPL+ NK-92 cells; TPO, 24 hours, no IL-2): 64.54
Bcl-xL RMFI (c-MPL+ NK-92 cells; TPO, 24 hours, no IL-2): 4.52
phospho-p44/42 MAPK expression (c-MPL+ NK-92 cells; cultures supplemented with IL-2 or TPO, 15 minutes): No alteration
degranulation in GFP+ MPL+ NK cells (CD107a) (GFP+ MPL+ NK cells; TPO added to 25 U/ml IL-2, 4 days, K562 1:1): 83%
percent of GFP MPL transduced NK cells that produced IFN-γ or TNF-α (GFP+ MPL+ NK cells; TPO added to 25 U/ml IL-2 vs 25 U/ml IL-2 alone, co-cultured with K562): considerably augmented
CD62L expression ([1]; TPO added to media containing 25 U/ml IL-2, normalized to each donor): significantly increased CD62L expression
NK cell phenotype other than CD62L ([1]; TPO added to media containing 25 U/ml of IL-2): no phenotypic differences
GFP+ MPL+ cells as percentage of total live cells from each organ, vs GFP+ CD34+ control cells (GFP+ MPL+ cells; TPO-treated mice): significantly more
average percentage of GFP+ MPL+ cells amongst the recovered human cells (GFP+ MPL+ cells; blood and spleen): 15%
average percentage of GFP+ MPL+ cells amongst the recovered human cells (GFP+ MPL+ cells; liver and lung): 20%
